Results as given in ChEMBL document CHEMBL1126848, “Concepts and progress in the development of peptide mimetics” (J Med Chem, 1993).

Columns and labels:
Mus musculus [1] = assay: Concentration required toTRH reduced mean latencies mimetics in mice after p.o. administration using the Morris water maze test; 0.003-3; assay type: functional, organism-based
Mus musculus [2] = assay: Concentration required toTRH reduced mean latencies mimetics in mice after i.p. administration using the Morris water maze test; 0.003-3; assay type: functional, organism-based

NC(=O)C[C@@H]1C[C@H](Cc2c[nH]cn2)C[C@H](C[C@@H]2CCC(=O)N2Cc2ccccc2)C1
Concentration (Mus musculus [1]): 0.003 mg/kg
Concentration (Mus musculus [2]): 0.003 mg/kg
